Assay results reported in patent publication US5574026A, “Methods for inhibiting angiogenesis proliferation of endothelial or tumor cells and tumor growth” (American Cyanamid Company, priority 1994, dated 1996).
Converted amounts (≈) assume the structure as drawn. Structures can show the parent of a compound that is named as a salt. Where two headings read alike, the source gives them in different places.

Key:
Experiment in all cases: Antiproliferative activity in human tumor cell lines, PROTOCOL 1 and PROTOCOL 2
Type in all cases: cell-based
A2780/DDP = settings: ovarian tumor cell line /DDP, 48 hours, read-out: IC50
Method: The assays are identified as follows: PROTOCOLS 1, 2, and 3 are described in greater detail hereinbelow. In general, according to PROTOCOLS 1 and 2, the target ABAE and/or Human Tumor cells are exposed to the compounds of Formula I for 48 hours. PROTOCOL 3 exposes ABAE cells to the compounds for 4 days. A detailed description of the Protocols is as follows: Antiproliferative Activity in Human Tumor Cell Lines The antiproliferative activity of the compounds of Formula I of the present invention is evaluated in a panel comprised of human tumor cell lines. […] Cultures are renewed after 20 passages with cells from a fresh stock of batch-frozen early passage cells. Cell lines are routinely checked for mycoplasma contamination (Genprobe). In a laminar flow hood, cells (1-5×10^4) are plated into 96-well microtiter plates in a volume of 0.1 ml/well with a bulk microtiter dispenser (Denley). […] Compounds are added using a Tomtec dispenser which simultaneously dispenses from one 96-well plate, containing the drug dilutions, to the plates containing the cells. After two days of continuous drug exposure, 50% cold trichloroacetic acid (TCA) is added to 10% final concentration to fix the cells, and after 60 minutes at 4° C., the TCA is aspirated and the plates are washed 5 times with deionized water using a microtiter plate washer. […] A 0.4% solution of the dye, sulforhodamine B, in glacial acetic acid is added to the plates, and the plates are washed 5 times with 1% glacial acetic acid using the automatic plate washed. The bound stain is solubilized with 0.1 ml of 10 mMTris base. The optical densities are read from an automatic spectrophotometric plate reader (Dynatech) directly to a main frame computer (VAX 8600). Positive controls, that include standard chemotherapeutic drugs (i.e., adriamycin, cisplatin, etc.), are included in every experiment. Background optical density measurements (complete media--cells, and complete media+drug-cells) are automatically subtracted from the appropriate control and test wells. Mean values and standard errors are determined from duplicate wells. A measure is also made of the optical density at time when the drugs are added. The number of cells after treatment (P), as % of control, is calculated for every concentration of drug, as follows: [formula] wherein: T is optical density measurement for treated cells after 48 hours; C is optical density measurement for untreated cells after 48 hours; Co is optical density measurement for cells at the time of drug addition. IC50 of Growth inhibition is calculated from the sets of P values using the RS-1 data package (BBN Software). Antiproliferative Activity in Human Tumor and Adult Bovine Aortic Endothelial Cell Lines (ABAE) The antiproliferative activity of the compounds of Formula I is evaluated in a panel comprised of human tumor cell lines as listed in Protocol 1 as well as an adult bovine aortic endothelial cell line (ABAE). This assay is a modification of PROTOCOL 1.

MIP = settings: colon tumor cell line MIP, 48 hours
Method: (§1) The antiproliferative activity of the compounds of Formula I in an Adult Bovine Aortic Endothelial (ABAE) cell line and in Human Tumor cells lines is evaluated in three similar assays that measure growth inhibition. The assays are identified as follows:
(§2) PROTOCOLS 1, 2, and 3 are described in greater detail hereinbelow. In general, according to PROTOCOLS 1 and 2, the target ABAE and/or Human Tumor cells are exposed to the compounds of Formula I for 48 hours. PROTOCOL 3 exposes ABAE cells to the compounds for 4 days. A detailed description of the Protocols is as follows:
(§3) Antiproliferative Activity in Human Tumor Cell Lines
(§4) The antiproliferative activity of the compounds of Formula I of the present invention is evaluated in a panel comprised of human tumor cell lines. The human tumor cell lines are from
(§5) 2) Colon tumors: MIP, CACO2, and SW620.
(§6) All cell lines are maintained in log phase in RPMI 1640 media, supplemented with 5% fetal calf serum, penicillin/streptomycin and 2 mM L-glutamine. Cultures are renewed after 20 passages with cells from a fresh stock of batch-frozen early passage cells. Cell lines are routinely checked for mycoplasma contamination (Genprobe). In a laminar flow hood, cells (1-5×10^4) are plated into 96-well microtiter plates in a volume of 0.1 ml/well with a bulk microtiter dispenser (Denley). […] At this concentration, dimethylsulfoxide has no effect on cell growth. Compounds are added using a Tomtec dispenser which simultaneously dispenses from one 96-well plate, containing the drug dilutions, to the plates containing the cells. After two days of continuous drug exposure, 50% cold trichloroacetic acid (TCA) is added to 10% final concentration to fix the cells, and after 60 minutes at 4° C., the TCA is aspirated and the plates are washed 5 times with deionized water using a microtiter plate washer. The number of cells on the plate are quantitated using a protein dye-binding assay (Monks et al., 1991). A 0.4% solution of the dye, sulforhodamine B, in […] is added to the plates, and the plates are washed 5 times with 1% glacial acetic acid using the automatic plate washed. The bound stain is solubilized with 0.1 ml of 10 mMTris base. The optical densities are read from an automatic spectrophotometric plate reader (Dynatech) directly to a main frame computer (VAX 8600).
(§7) Positive controls, that include standard chemotherapeutic drugs (i.e., adriamycin, cisplatin, etc.), are included in every experiment.
(§8) Background optical density measurements (complete media--cells, and complete media+drug-cells) are automatically subtracted from the appropriate control and test wells. Mean values and standard errors are determined from duplicate wells. A measure is also made of the optical density at time when the drugs are added. The number of cells after treatment (P), as % of control, is calculated for every concentration of drug, as follows: [formula] wherein: T is optical density measurement for treated cells after 48 hours;
(§9) C is optical density measurement for untreated cells after 48 hours;
(§10) Co is optical density measurement for cells at the time of drug addition.
(§11) IC50 of Growth inhibition is calculated from the sets of P values using the RS-1 data package (BBN Software).
(§12) Antiproliferative Activity in Human Tumor and Adult Bovine Aortic Endothelial Cell Lines (ABAE)
(§13) The antiproliferative activity of the compounds of Formula I is evaluated in a panel comprised of human tumor cell lines as listed in Protocol 1 as well as an adult bovine aortic endothelial cell line (ABAE). This assay is a modification of PROTOCOL 1. The modifications include:
(§14) 1) each concentration for each compound is tested in a single well;
(§15) 2) compounds are tested at 20, 4, 0.8, 0.16 microgram/ml and additionally in some experiments at 100 and 0.32 microgram/ml;
(§16) 3) samples are pipetted into a 96-well plate for each of the cell lines by a Beckman Biomek 1000 SL robot; […]

CACO2 = tested on: CACO2
Method: as §1, §2, §3, §4, §5, §6, §7, §8, §9, §10, §11, §12, §13, §14, §15, §16

[1] = Caco-2, colon tumor cell line CACO2, 48 hours, read-out: IC50

| SMILES | IC50 (A2780/DDP) | IC50 (MIP) | IC50 (CACO2; [1]) | IC50 (CACO2; Caco-2, 48 h) |
| --- | --- | --- | --- | --- |
| CN(C)[C@@H]1C(O)=C(C(N)=O)C(=O)[C@@]2(O)C(O)=C3C(=O)c4c(O)ccc(Br)c4CC3CC12 (stereo partly drawn) [Example 8, [4S-(4α,12aα)]-7-Bromo-4-(dimethylamino)-1,4,4a,5,5a,-6,11,12a-octahydro-3,10,12,12a-tetrahydroxy-1,11-dioxo-2-naphthacenecarboxamide sulfate] | 0.6 µg/mL | 2 µg/mL | 2.4 µg/mL | – |
| CN(C)[C@@H]1C(O)=C(C(N)=O)C(=O)[C@@]2(O)C(O)=C3C(=O)c4c(O)ccc(I)c4CC3CC12 (stereo partly drawn) [Example 10, [4S-(4α,12aα)]-4-(Dimethylamino)-4,4,4a,5,5a,6,11,12a-octahydro-3,10,12,12a-tetrahydroxy-7-iodo-1,11-dioxo-2-naphthacenecarboxamide] | 4 µg/mL (≈ 7.4 µM) | 0.8 µg/mL (≈ 1.48 µM) | – | 2.8 µg/mL (≈ 5.18 µM) |
| CN(C)c1ccc(O)c2c1C[C@H]1C[C@H]3[C@H](N(C)C)C(O)=C(C(N)=O)C(=O)[C@@]3(O)C(O)=C1C2=O [Minocycline, reference compound] | 6.1 µg/mL (≈ 13.3 µM) | 6.1 µg/mL (≈ 13.3 µM) | 9 µg/mL (≈ 19.7 µM) | – |
